Data reported in patent publication US12391669B2, “Substituted pyrimidines as IRE1 kinase inhibitors” (THE REGENTS OF THE UNIVERSITY OF CALIFORNIA, priority 2018, dated 2025).
Like-named read-outs stand apart in the source and are kept apart here.

Experiments:
Format in all cases: biochemical
[1] = target: IRE1α kinase (Homo sapiens (Human), UniProt O75460); assay: IRE1α kinase IC50
[2] = target: IRE1β kinase (Homo sapiens (Human), UniProt Q76MJ5); assay: IRE1β kinase IC50
[3] = target: IRE1α RNase (Homo sapiens (Human), UniProt O75460); assay: IRE1α RNase IC50
Sequence of IRE1α RNase (O75460 19-977): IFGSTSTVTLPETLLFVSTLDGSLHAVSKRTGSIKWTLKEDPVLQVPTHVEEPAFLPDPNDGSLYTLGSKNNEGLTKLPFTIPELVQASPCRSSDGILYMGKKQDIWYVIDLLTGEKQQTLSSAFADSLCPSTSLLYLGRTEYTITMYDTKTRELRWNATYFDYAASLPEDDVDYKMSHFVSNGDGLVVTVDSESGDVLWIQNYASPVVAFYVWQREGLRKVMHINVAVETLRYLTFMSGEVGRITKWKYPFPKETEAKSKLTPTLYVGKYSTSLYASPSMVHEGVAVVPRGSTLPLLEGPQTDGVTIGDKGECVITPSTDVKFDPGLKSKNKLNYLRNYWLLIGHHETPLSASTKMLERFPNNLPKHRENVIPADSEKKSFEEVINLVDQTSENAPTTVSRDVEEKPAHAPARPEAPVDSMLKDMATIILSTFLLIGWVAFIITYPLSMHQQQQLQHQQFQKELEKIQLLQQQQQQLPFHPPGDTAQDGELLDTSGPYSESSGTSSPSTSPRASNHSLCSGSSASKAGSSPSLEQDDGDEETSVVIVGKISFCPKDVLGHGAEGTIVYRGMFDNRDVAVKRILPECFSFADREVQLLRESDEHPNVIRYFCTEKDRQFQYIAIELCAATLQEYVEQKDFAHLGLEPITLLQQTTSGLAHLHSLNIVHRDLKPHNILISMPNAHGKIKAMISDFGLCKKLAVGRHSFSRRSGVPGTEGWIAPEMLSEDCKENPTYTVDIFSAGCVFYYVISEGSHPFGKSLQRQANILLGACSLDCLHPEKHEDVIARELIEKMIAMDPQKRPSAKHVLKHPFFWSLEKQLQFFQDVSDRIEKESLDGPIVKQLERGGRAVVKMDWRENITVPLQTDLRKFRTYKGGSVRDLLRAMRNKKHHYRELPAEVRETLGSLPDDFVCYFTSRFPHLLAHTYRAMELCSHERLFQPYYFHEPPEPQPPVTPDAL

Sequence of IRE1α kinase (O75460 19-977): as above
Sequence of IRE1β kinase (Q76MJ5 35-926): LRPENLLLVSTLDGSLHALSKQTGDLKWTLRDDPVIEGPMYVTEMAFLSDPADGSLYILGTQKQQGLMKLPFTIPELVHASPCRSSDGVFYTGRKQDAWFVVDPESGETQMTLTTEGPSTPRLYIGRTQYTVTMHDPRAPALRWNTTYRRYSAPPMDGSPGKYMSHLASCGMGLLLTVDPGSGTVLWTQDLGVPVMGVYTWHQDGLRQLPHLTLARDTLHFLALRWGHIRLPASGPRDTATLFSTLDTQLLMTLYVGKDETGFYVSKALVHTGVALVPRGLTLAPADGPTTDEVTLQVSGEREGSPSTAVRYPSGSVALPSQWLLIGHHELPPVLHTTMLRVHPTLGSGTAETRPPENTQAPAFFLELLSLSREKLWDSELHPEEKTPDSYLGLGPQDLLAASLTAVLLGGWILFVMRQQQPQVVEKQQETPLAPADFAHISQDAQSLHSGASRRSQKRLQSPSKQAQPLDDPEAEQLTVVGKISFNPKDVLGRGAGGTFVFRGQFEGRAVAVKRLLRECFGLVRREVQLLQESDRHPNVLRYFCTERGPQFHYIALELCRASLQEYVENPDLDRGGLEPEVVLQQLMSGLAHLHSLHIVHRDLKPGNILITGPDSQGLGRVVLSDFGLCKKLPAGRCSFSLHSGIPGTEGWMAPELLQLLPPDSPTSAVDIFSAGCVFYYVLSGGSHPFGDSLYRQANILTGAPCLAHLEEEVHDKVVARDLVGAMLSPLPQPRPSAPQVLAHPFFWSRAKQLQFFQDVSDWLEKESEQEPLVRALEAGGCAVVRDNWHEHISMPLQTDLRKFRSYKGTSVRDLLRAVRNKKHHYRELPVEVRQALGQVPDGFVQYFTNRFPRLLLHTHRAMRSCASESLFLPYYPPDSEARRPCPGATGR

IC50 ([1]; (HF))	IC50 [2]	IC50 [1]	IC50 ([3]; (HF))	SMILES	further results
	120 nM	98 nM	117 nM	Cc1ccc2c(NS(=O)(=O)c3ccccc3Cl)cccc2c1Oc1nccnc1-c1ccnc(N[C@H]2CCCNC2)n1 [compound 96]	
1600 nM				O=S(=O)(NCc1cccc(Oc2ncsc2-c2ccnc(N[C@H]3CCCNC3)n2)c1)c1ccccc1Cl [compound 43, (S)-2-chloro-N-(3-(5-(2-(piperidin-3-ylamino)pyrimidin-4-yl)thiazol-4-yloxy)benzyl)benzenesulfonamide]	
	1980 nM	296 nM		O=S(=O)(Nc1ccc(Oc2nccnc2-c2ccnc(N[C@H]3CCCNC3)n2)c2ccccc12)c1ccccc1Cl [compound 84, (S)-2-chloro-N-(4-(3-(2-(piperidin-3-ylamino)pyrimidin-4-yl)pyrazin-2-yloxy)naphthalen-1-yl)benzenesulfonamide]	
	32 nM	117 nM	46 nM	O=S(=O)(Nc1ccc(Oc2ncsc2-c2ccnc(N[C@H]3CCCNC3)n2)cc1F)c1ccccc1Cl [compound 25]	
	2100 nM	6200 nM		O=S(=O)(Nc1ccc(Oc2nccnc2-c2ccnc(N[C@H]3CCCNC3)n2)cc1F)c1ccccc1Cl [compound 77, (S)-2-chloro-N-(2-fluoro-4-(3-(2-(piperidin-3-ylamino)pyrimidin-4-yl)pyrazin-2-yloxy)phenyl)benzenesulfonamide]	
	1570 nM	961 nM		O=S(=O)(Cc1ccccc1Cl)Nc1ccc(Oc2nccnc2-c2ccnc(N[C@H]3CCCNC3)n2)cc1F [compound 73, (S)-1-(2-chlorophenyl)-N-(2-fluoro-4-(3-(2-(piperidin-3-ylamino)pyrimidin-4-yl)pyrazin-2-yloxy)phenyl) methane sulfonamide]	
119 nM			24 nM	O=S(=O)(Cc1ccccc1Cl)Nc1ccc(Oc2ncsc2-c2ccnc(N[C@H]3CCCNC3)n2)cc1F [compound 11, (S)-1-(2-chlorophenyl)-N-(2-fluoro-4-(5-(2-(piperidin-3-ylamino)pyrimidin-4-yl)thiazol-4-yloxy)phenyl)methane sulfonamide]	

The remaining lines, values behind:

SMILES	IC50 ([1]; (HF))	IC50 [2]	IC50 [1]	IC50 ([3]; (HF))	further results
Cc1ccc(C(=O)Nc2ccccc2Cl)cc1Oc1ncsc1-c1ccnc(N[C@H]2CCCNC2)n1 [compound 16, (S)—N-(2-chlorophenyl)-4-methyl-3-(5-(2-(piperidin-3-ylamino)pyrimidin-4-yl)thiazol-4-yloxy)benzamide]	307 nM	> 10000 nM			IC50 ([1]; (RB)): 228 nM
c1ccc2[nH]c(Cc3ccc(Oc4nccnc4-c4ccnc(N[C@H]5CCCNC5)n4)cc3)nc2c1 [compound 88, (S)-4-(3-(4-((1H-benzo[d]imidazol-2-yl)methyl)phenoxy)pyrazin-2-yl)-N-(piperidin-3-yl)pyrimidin-2-amine]		> 10000 nM	7300 nM		
Cc1cc(NS(=O)(=O)c2ccccc2Cl)ccc1Oc1ncsc1-c1ccnc(N[C@H]2CCCNC2)n1 [compound 39]	1140 nM				
O=C(NCc1ccccc1Cl)c1cccc(Oc2ncsc2-c2ccnc(N[C@H]3CCCNC3)n2)c1 [compound 51, (S)—N-(2-chlorobenzyl)-3-(5-(2-(piperidin-3-ylamino)pyrimidin-4-yl)thiazol-4-yloxy)benzamide]	524 nM				
O=S(=O)(Nc1cccc2c(Oc3ncsc3-c3ccnc(N[C@H]4CCCNC4)n3)cccc12)c1ccccc1Cl [compound 47, (S)-2-chloro-N-(5-(5-(2-(piperidin-3-ylamino)pyrimidin-4-yl)thiazol-4-yloxy)naphthalen-1-yl)benzenesulfonamide]		181 nM	10 nM	8.3 nM	
Cc1ccc(C(=O)NCc2ccccc2Cl)cc1Oc1ncsc1-c1ccnc(N[C@H]2CCCNC2)n1 [compound 20, (S)—N-(2-chlorobenzyl)-4-methyl-3-(5-(2-(piperidin-3-ylamino)pyrimidin-4-yl)thiazol-4-yloxy) benzamide]	55 nM				IRE1α RNase IC50 ([3]; result in words, pIRE1α): No inhibition of pIRE1α
Cc1ccc(C(=O)N(C)Cc2ccccc2Cl)cc1Oc1ncsc1-c1ccnc(N[C@H]2CCCNC2)n1 [compound 55, (S)—N-(2-chlorobenzyl)-N,4-dimethyl-3-(5-(2-(piperidin-3-ylamino)pyrimidin-4-yl)thiazol-4-yloxy)benzamide]	3180 nM				
c1cc(Cc2nc3ccccc3[nH]2)cc(Oc2ncsc2-c2ccnc(N[C@H]3CCCNC3)n2)c1 [compound 35, (S)-4-(4-(3-((1H-benzo[d]imidazol-2-yl)methyl)phenoxy)thiazol-5-yl)-N-(piperidin-3-yl)pyrimidin-2-amine]				153 nM	
c1ccc2[nH]c(Cc3ccc(Oc4ncsc4-c4ccnc(N[C@H]5CCCNC5)n4)cc3)nc2c1 [compound 30, (S)-4-(4-(4-((1H-benzo[d]imidazol-2-yl)methyl)phenoxy)thiazol-5-yl)-N-(piperidin-3-yl)pyrimidin-2-amine]		8400 nM	439 nM		IC50 [3]: 118 nM
Cc1nc(Oc2ccc(NS(=O)(=O)c3ccccc3Cl)c3ccccc23)c(-c2ccnc(N[C@H]3CCCNC3)n2)s1 [compound 67, (S)-2-chloro-N-(4-(2-methyl-5-(2-(piperidin-3-ylamino)pyrimidin-4-yl)thiazol-4-yloxy)naphthalen-1-yl)benzenesulfonamide]	63 nM			19 nM	
